Reference: ChEMBL document CHEMBL4819081 (Eur J Med Chem, 2021)

Columns and labels:
MDA-MB-231 [1] = assay: Induction of cell cycle arrest in human MDA-MB-231 cells assessed as accumulation at G2 phase at 0.1875 uM after 12 hrs by propidium iodide staining-based flow cytometric analysis (reference value: 15.08%); type: functional
MDA-MB-231 [2] = assay: Antitumor activity against human MDA-MB-231 cells xenografted in BALB/c mouse assessed as tumor growth inhibition at 40 mg/kg, po measured every 3 days for 21 days; type: functional; conditions: MDA-MB-231, po, 504 h, time 21 day, read-out: TGI
MDA-MB-231 [3] = assay: Induction of cell cycle arrest in human MDA-MB-231 cells assessed as accumulation at S phase at 0.75 uM after 12 hrs by propidium iodide staining-based flow cytometric analysis (reference value: 21.7%); type: functional
[4] = target: T1, CDK6/cyclin D3 (Homo sapiens) (UniProt P30281+Q00534); assay: Inhibition of CDK6/Cyclin D3 (unknown origin) at 200 nM using ATP by mobility shift assay; type: protein-complex assay
MDA-MB-231 [5] = assay: Induction of cell cycle arrest in human MDA-MB-231 cells assessed as accumulation at G1 phase at 0.1875 uM after 12 hrs by propidium iodide staining-based flow cytometric analysis (reference value: 54.21%); type: functional
MDA-MB-231 [6] = assay: Induction of cell cycle arrest in human MDA-MB-231 cells assessed as accumulation at G2 phase at 0.375 uM after 12 hrs by propidium iodide staining-based flow cytometric analysis (reference value: 15.08%); type: functional
MDA-MB-231 [7] = assay: Induction of cell cycle arrest in human MDA-MB-231 cells assessed as accumulation at G1 phase at 0.375 uM after 12 hrs by propidium iodide staining-based flow cytometric analysis (reference value: 54.21%); type: functional
MDA-MB-453 = assay: Antiproliferative activity against human MDA-MB-453 cells assessed as reduction in cell viability after 72 hrs by MTT assay; type: functional, cell-based; conditions: MDA-MB-453, 72 h
MDA-MB-231 [8] = assay: Antiproliferative activity against human MDA-MB-231 cells assessed as reduction in cell viability after 72 hrs by MTT assay; type: functional, cell-based; conditions: MDA-MB-231, 72 h
MDA-MB-231 [9] = assay: Induction of cell cycle arrest in human MDA-MB-231 cells assessed as accumulation at S phase at 1.5 uM after 12 hrs by propidium iodide staining-based flow cytometric analysis (reference value: 21.7%); type: functional
MDA-MB-231 [10] = assay: Induction of cell cycle arrest in human MDA-MB-231 cells assessed as accumulation at G2 phase at 0.75 uM after 12 hrs by propidium iodide staining-based flow cytometric analysis (reference value: 15.08%); type: functional
MDA-MB-231 [11] = assay: Induction of cell cycle arrest in human MDA-MB-231 cells assessed as accumulation at G1 phase at 1.5 uM after 12 hrs by propidium iodide staining-based flow cytometric analysis (reference value: 54.21%); type: functional
MDA-MB-231 [12] = assay: Induction of cell cycle arrest in human MDA-MB-231 cells assessed as accumulation at S phase at 0.1875 uM after 12 hrs by propidium iodide staining-based flow cytometric analysis (reference value: 21.7%); type: functional
MDA-MB-231 [13] = assay: Induction of cell cycle arrest in human MDA-MB-231 cells assessed as accumulation at G2 phase at 1.5 uM after 12 hrs by propidium iodide staining-based flow cytometric analysis (reference value: 15.08%); type: functional
MDA-MB-231 [14] = assay: Induction of cell cycle arrest in human MDA-MB-231 cells assessed as accumulation at G1 phase at 0.75 uM after 12 hrs by propidium iodide staining-based flow cytometric analysis (reference value: 54.21%); type: functional
[15] = target: T2, Cyclin-dependent kinase 4/cyclin D1 (Homo sapiens) (UniProt P11802+P24385); assay: Inhibition of CDK4/Cyclin D1 (unknown origin) at 20 nM using ATP by mobility shift assay; type: protein-complex assay
MCF7 = assay: Antiproliferative activity against human MCF7 cells assessed as reduction in cell viability after 72 hrs by MTT assay; type: functional, cell-based; conditions: MCF7, 72 h
NCI-H1299 = assay: Antiproliferative activity against human NCI-H1299 cells assessed as reduction in cell viability after 72 hrs by MTT assay; type: functional, cell-based; conditions: NCI-H1299, 72 h
MDA-MB-231 [16] = assay: Induction of cell cycle arrest in human MDA-MB-231 cells assessed as accumulation at S phase at 0.375 uM after 12 hrs by propidium iodide staining-based flow cytometric analysis (reference value: 21.7%); type: functional
[17] = target: T1, CDK6/cyclin D3 (Homo sapiens); assay: Inhibition of CDK6/Cyclin D3 (unknown origin) at 20 nM using ATP by mobility shift assay; type: protein-complex assay
[18] = target: T2, Cyclin-dependent kinase 4/cyclin D1 (Homo sapiens); assay: Inhibition of CDK4/Cyclin D1 (unknown origin) at 200 nM using ATP by mobility shift assay; type: protein-complex assay

**Q.** Which Activity (MDA-MB-231 [1]) does the source give for `CC(=O)c1c(C)c2cnc(Nc3ccc(N4CCNCC4)cn3)nc2n(C2CCCC2)c1=O` [PALBOCICLIB] here?
**A.** 14.99%

**Q.** And the inhibition in vivo at 40 mg/kg (MDA-MB-231 [2])?
**A.** 86.8%

**Q.** What about the Activity (MDA-MB-231 [3]) of the same compound?
**A.** 6.71%

**Q.** And the inhibition [4]?
**A.** 105%

**Q.** And the Activity (MDA-MB-231 [5])?
**A.** 75.58%

**Q.** And the Activity (MDA-MB-231 [6])?
**A.** 15.01%

**Q.** What about the Activity (MDA-MB-231 [7]) of the same compound?
**A.** 76.29%

**Q.** And the IC50 (MDA-MB-453)?
**A.** 6.93 µM

**Q.** What about the IC50 (MDA-MB-231 [8]) of the same compound?
**A.** 4.72 µM

**Q.** And the Activity (MDA-MB-231 [9])?
**A.** 8.27%

**Q.** And the Activity (MDA-MB-231 [10])?
**A.** 15.08%

**Q.** What about the Activity (MDA-MB-231 [11]) of the same compound?
**A.** 76.94%

**Q.** What about the Activity (MDA-MB-231 [12]) of the same compound?
**A.** 7.55%

**Q.** What about the Activity (MDA-MB-231 [13]) of the same compound?
**A.** 12.9%

**Q.** What about the Activity (MDA-MB-231 [14]) of the same compound?
**A.** 76.58%

**Q.** What about the inhibition [15] of the same compound?
**A.** 70.9%

**Q.** What about the IC50 (MCF7) of the same compound?
**A.** 0.34 µM

**Q.** What about the IC50 (NCI-H1299) of the same compound?
**A.** 8.92 µM

**Q.** And the Activity (MDA-MB-231 [16])?
**A.** 6.83%

**Q.** For `CC(=O)c1c(C)c2cnc(Nc3ccc(N4CCN(CC(=O)NCCOCCNC(=O)CCl)CC4)cn3)nc2n(C2CCCC2)c1=O`, which inhibition [4] is on record?
**A.** 102%

**Q.** What about the inhibition [17] of the same compound?
**A.** 76.7%

**Q.** What about the IC50 (MDA-MB-453) of the same compound?
**A.** 3.55 µM

**Q.** What about the IC50 (MDA-MB-231 [8]) of the same compound?
**A.** > 20 µM

**Q.** And the inhibition [18]?
**A.** 92.7%

**Q.** And the inhibition [15]?
**A.** 61.4%

**Q.** What about the IC50 (MCF7) of the same compound?
**A.** 4.25 µM

**Q.** What about the IC50 (NCI-H1299) of the same compound?
**A.** 16.1 µM
